Test results as given in article PMC5522996, “Big conductance calcium‐activated potassium channel openers control spasticity without sedation” (British Journal of Pharmacology, 2017).

Tests used:
[1] = Plasma, brain and spinal cord levels in ABH mice with spastic EAE; type: in vivo, mouse
Procedure: The stability of compounds when subjected to hepatic and plasma degradation was assessed in vitro by Inpharmatica, Cambridge, UK. Compounds (1 μM) were incubated with either pooled mouse liver microsomes (0.1 mg protein mL^−1) or pooled mouse plasma at 37°C for 0, 5, 10, 20 and 40 min before termination with acetonitrile containing warfarin as an analytical internal standard. Samples were centrifuged, and the resultant supernatant analysed for parent compound. The mass responses at baseline were taken as the 100% reference values against which the disappearance of the compound was measured. The natural log of the % remaining values was used to generate linear plots of disappearance of the compounds. Half‐life values were calculated from the slope of these plots. Hepatocyte metabolism was assessed by Cyprotex, Macclesfield, and 10 μM VSN16R was incubated with primary mouse, rat, monkey (Macaque) and human hepatocytes for 1 h, and the presence of metabolites was assessed using liquid […] mass spectroscopy. The stability of VSN16R was assessed in vivo by Inpharmatica, Cyprotex and Charles Rivers, Cambridge. Blood (plasma) samples were obtained prior to and 5 min to 24 h after drug administration of 2–5 mg·kg^−1 i.v. or 5 mg·kg^−1 p.o. VSN16R into outbred mice and rats (n = 3 per time point). In addition, plasma, brain and spinal cord samples were obtained from ABH with spastic EAE. Immediately after blood collection, the brain and spinal cord were removed and then stored at −20°C prior to assay. Tissue samples were weighed, homogenized and centrifuged, and the lysates generated. Brain lysates and plasma were assayed by LC–MS methods by Inpharmatica/Charles Rivers, Cambridge, UK. This was also performed using a Waters Xevo TQ or API4000, AB Sciex mass spectrometer using spiked samples as standards. PK Solutions Software (Summit Research Services, Montrose, CO, USA), AB Sciex Analyst software combined with Thermo Fisher Scientific Watson LIMS processing and reporting software or WinNonLin pharmacokinetic or PK solutions 2.0 software (Summit Research Services, Montrose CO, USA) were used to produce PK parameters. Data are expressed as mean ± SEM. The detection limit of VSN16R was 2 ng·mL^−1 in plasma and brain and 14 ng·mL^−1 in spinal cords. The detection limit of VSN22R was 2 ng·mL^−1 in plasma and 0.1 ng·mL^−1 for VSN44R in plasma. Pharmacokinetics in toxicological samples in rats (n = 6 per group), dogs (n = 6 per group) and humans (n = 6 per group) were performed by Charles Rivers (Edinburgh, UK).

dogs = experiment: 28 day toxicology in dogs (50, 100, 200mg/kg p.o.); type: in vivo, dog
Procedure: Twenty‐eight day toxicology in rats and dogs for Investigational New Drug filing was performed by Charles Rivers (UK). Reproductive toxicology in rabbits was performed by Charles Rivers (Canada). Pharmacokinetic and/or toxicological doses ranged from 5 to 1000 mg·kg^−1 p.o. in Sprague Dawley male and female rats (n = 6‐26 per group), 50–200 mg·kg^−1 p.o. in male and female Beagle dogs (n = 6 per group) and 100–750 mg·kg^−1 p.o. in female New Zealand white rabbits (n = 9 per group). Results are expressed as mean ± SD.
Tissue Analysed Result of Tissue Analysis in Rats Result of Tissue Analysis in Dogs Artery, Aorta Negative Negative
Bone Marrow femur Negative Negative
Bone Marrow sternum Negative Negative
Bone, Sternum Negative Negative
Epididymus Negative Negative
Adrenal Gland Negative Negative
Mammary Grand Negative Negative
Parathyroid Gland Negative Negative
Pituitary Gland Negative Negative
Prostate Gland Negative Negative
Salivary Gland Negative Negative
Seminal Vesicle Gland Negative Negative
Gut associated lymphoid Negative Negative
Large Intestine caecum Negative Negative
Large Intestine colon Negative Negative
Large Intestine rectum Negative Negative
Mandibular Lymph Node Negative Negative
Mesenteric Lymph Node Negative Negative
Skeletal Muscle Negative Negative
Nasal Cavity Negative Negative
Sciatic Nerve Negative Negative
Oesophagus Negative Negative
Pancreas Negative Negative […]

Beagle dogs = experiment: Telemetry of heart rate and blood pressure in Beagle dogs; type: in vivo, dog
Procedure: Parameter Time Vehicle 50mg/kg 100mg/kg 200mg/kg
Diastolic Blood Pressure (mm Hg) 0 min 79 ± 4 83 ± 4 86 ± 4 87 ± 1
Adult male Beagle dogs implanted previously with a DSI Physio Tel TL11-M2 D70-PCT intramuscular
telemetry device received either: 50mg/kg, 100mg/kg or 200mg/kg p.o. VSN16R in water or water.
The results represent the mean ± SD. n=4.

CCR1 = target: T1, CCR1 (Homo sapiens, UniProt P32246); experiment: Receptor binding profile of VSN16R; details: 10µM VSN16R
T1 construct: purchased Cerep; Chantest; DiscoveRx; Multispan; MDS Pharma Services
T1 sequence (P32246 whole entry): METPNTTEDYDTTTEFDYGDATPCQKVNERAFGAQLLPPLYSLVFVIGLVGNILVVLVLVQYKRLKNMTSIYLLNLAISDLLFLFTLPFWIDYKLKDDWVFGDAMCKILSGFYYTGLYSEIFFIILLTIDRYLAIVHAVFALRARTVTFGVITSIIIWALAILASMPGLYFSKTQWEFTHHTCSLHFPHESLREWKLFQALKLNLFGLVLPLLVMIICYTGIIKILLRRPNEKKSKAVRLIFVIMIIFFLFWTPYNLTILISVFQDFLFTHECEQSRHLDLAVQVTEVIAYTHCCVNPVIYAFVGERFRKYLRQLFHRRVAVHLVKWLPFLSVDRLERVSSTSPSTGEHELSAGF

NK3 = target: T2, NK3 (Homo sapiens, UniProt P29371); experiment: Receptor binding profile of VSN16R; details: 10µM VSN16R
T2 construct: purchased Cerep; Chantest; DiscoveRx; Multispan; MDS Pharma Services
T2 sequence (P29371 whole entry): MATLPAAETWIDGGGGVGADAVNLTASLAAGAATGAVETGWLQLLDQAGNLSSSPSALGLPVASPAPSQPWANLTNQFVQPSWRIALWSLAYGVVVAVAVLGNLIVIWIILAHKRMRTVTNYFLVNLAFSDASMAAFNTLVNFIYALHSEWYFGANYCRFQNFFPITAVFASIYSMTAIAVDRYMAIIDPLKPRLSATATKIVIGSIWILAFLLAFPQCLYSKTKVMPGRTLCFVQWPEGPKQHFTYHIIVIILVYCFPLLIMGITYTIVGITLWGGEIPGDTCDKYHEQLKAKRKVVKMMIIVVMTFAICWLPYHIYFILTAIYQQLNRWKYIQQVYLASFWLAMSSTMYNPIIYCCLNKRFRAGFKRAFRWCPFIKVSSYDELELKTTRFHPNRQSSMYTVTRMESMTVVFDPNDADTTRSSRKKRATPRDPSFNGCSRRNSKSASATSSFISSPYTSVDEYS

sst(non-selective) = experiment: Receptor binding profile of VSN16R; design: species or system human; details: 10µM VSN16R
K+V channel = experiment: Receptor binding profile of VSN16R; design: species or system human; details: 10µM VSN16R
GPR119 = GPR119 (Homo sapiens, UniProt Q8TDV5); experiment: Receptor binding profile of VSN16R; design: purchased Cerep; Chantest; DiscoveRx; Multispan; MDS Pharma Services; details: 10µM VSN16R
Chain of GPR119 (Q8TDV5 whole entry): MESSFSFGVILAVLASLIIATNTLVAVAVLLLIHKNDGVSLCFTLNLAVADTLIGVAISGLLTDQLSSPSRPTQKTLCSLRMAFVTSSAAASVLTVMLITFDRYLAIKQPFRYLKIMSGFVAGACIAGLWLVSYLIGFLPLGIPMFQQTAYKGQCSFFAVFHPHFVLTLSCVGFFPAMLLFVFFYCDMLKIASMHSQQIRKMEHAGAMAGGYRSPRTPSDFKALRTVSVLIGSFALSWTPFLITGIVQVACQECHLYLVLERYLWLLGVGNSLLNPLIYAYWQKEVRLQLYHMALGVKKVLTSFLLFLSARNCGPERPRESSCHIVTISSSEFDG

## C[C@H](CO)NC(=O)c1cccc(/C=C\CCCC(=O)N(C)C)c1 [VSN16R]
[1]; after 5 mg·kg^−1 p.o. VSN16R, ABH mice with spastic EAE
  Plasma level of the named species: 73.0 ± 6.1 ng/mL
[1]; chronic EAE animals
  Mice with drug detected in brains: 4/4
  Mice with drug detected in spinal cords: 2/4
[1]; normal animals
  Mice with drug detected in brains: 4/4
  Mice with drug detected in spinal cords: 0/4
dogs; dog, in vivo
  Result of Tissue Analysis in Dogs: Negative
dogs; p.o., dogs
  NOEL: 100 mg/kg
Beagle dogs; 50mg/kg p.o., 30min
  Arterial Pressure: 97 ± 5 mm Hg
  Diastolic Blood Pressure: 83 ± 4 mm Hg
  Heart Rate: 104 ± 9 bpm
  Systolic Blood Pressure: 141 ± 6 mm Hg
Beagle dogs; 50mg/kg p.o., 60min
  Arterial Pressure: 106 ± 5 mm Hg
  Diastolic Blood Pressure: 87 ± 4 mm Hg
  Heart Rate: 119 ± 9 bpm
  Systolic Blood Pressure: 143 ± 6 mm Hg
Beagle dogs; 100mg/kg p.o., 30min
  Arterial Pressure: 99 ± 5 mm Hg
  Diastolic Blood Pressure: 86 ± 4 mm Hg
  Heart Rate: 114 ± 9 bpm
  Systolic Blood Pressure: 139 ± 6 mm Hg
Beagle dogs; 100mg/kg p.o., 60min
  Arterial Pressure: 106 ± 5 mm Hg
  Diastolic Blood Pressure: 91 ± 4 mm Hg
  Heart Rate: 111 ± 9 bpm
  Systolic Blood Pressure: 138 ± 6 mm Hg
Beagle dogs; 200mg/kg p.o., 30min
  Arterial Pressure: 97 ± 5 mm Hg
  Diastolic Blood Pressure: 87 ± 1 mm Hg
  Heart Rate: 125 ± 9 bpm
  Systolic Blood Pressure: 130 ± 6 mm Hg
Beagle dogs; 200mg/kg p.o., 60min
  Arterial Pressure: 102 ± 5 mm Hg
  Diastolic Blood Pressure: 88 ± 4 mm Hg
  Heart Rate: 134 ± 9 bpm
  Systolic Blood Pressure: 130 ± 6 mm Hg
Beagle dogs; dog, in vivo
  Cardiovascular issues: no cardiovascular issues
Beagle dogs; dogs
  Hypotension: did not induce hypotension
CCR1
  Activity: Negligible Activity
NK3
  Activity: Negligible Activity
sst(non-selective)
  Activity: Negligible Activity
K+V channel
  Activity: Negligible Activity
GPR119
  Activity: Negligible Activity
